Measurements as given in PubChem BioAssay AID1963851 (Molecular Pharmacology Branch, DTP, NCI, 2024).

Test system: 188146-221-R-J1-PDC complex spheroid viability
Test: Anticancer human tumor 188146-221-R-J1-PDC patient-derived colon adenocarcinoma cell line growth inhibition [POLQ]
Details: for IC50: curve of first compound; for viability, T/C: stronger effect = lower value
Summary of the method: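 Three-cell-type spheroids modelling solid tumor plus stroma served as the readout system; POL inhibitors were tested individually and in combination, concentration ranges set by clinical Cmax where known.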

[1] = second compound 0.0316 µM, first compound 0.0316 µM
[2] = second compound 0.0316 µM, first compound 0.1 µM
[3] = second compound 0.0316 µM, first compound 0.316 µM
[4] = second compound 0.0316 µM, first compound 1 µM
[5] = second compound 0.0316 µM, first compound 3.16 µM
[6] = second compound 0.0316 µM, first compound 10 µM
[7] = second compound 0.1 µM, first compound 0.0316 µM
[8] = second compound 0.1 µM, first compound 0.1 µM
[9] = second compound 0.1 µM, first compound 0.316 µM
[10] = second compound 0.1 µM, first compound 1 µM
[11] = second compound 0.1 µM, first compound 3.16 µM
[12] = second compound 0.1 µM, first compound 10 µM
[13] = second compound 0.316 µM, first compound 0.0316 µM
[14] = second compound 0.316 µM, first compound 0.1 µM
[15] = second compound 0.316 µM, first compound 0.316 µM
[16] = second compound 0.316 µM, first compound 1 µM
[17] = second compound 0.316 µM, first compound 3.16 µM
[18] = second compound 0.316 µM, first compound 10 µM
[19] = second compound 1 µM, first compound 0.0316 µM
[20] = second compound 1 µM, first compound 0.1 µM
[21] = second compound 1 µM, first compound 0.316 µM
[22] = second compound 1 µM, first compound 1 µM
[23] = second compound 1 µM, first compound 3.16 µM
[24] = second compound 1 µM, first compound 10 µM
[25] = second compound 3.16 µM, first compound 0.0316 µM
[26] = second compound 3.16 µM, first compound 0.1 µM
[27] = second compound 3.16 µM, first compound 0.316 µM
[28] = second compound 3.16 µM, first compound 1 µM
[29] = second compound 3.16 µM, first compound 3.16 µM
[30] = second compound 3.16 µM, first compound 10 µM
[31] = second compound 10 µM, first compound 0.0316 µM
[32] = second compound 10 µM, first compound 0.1 µM
[33] = second compound 10 µM, first compound 0.316 µM
[34] = second compound 10 µM, first compound 1 µM
[35] = second compound 10 µM, first compound 3.16 µM
[36] = second compound 10 µM, first compound 10 µM
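Also: spheroids exposed to compounds for seven days.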
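For viability, T/C in this document: 100% = DMSO vehicle control viability.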

COc1cc(C2c3cc4c(cc3C(OC3OC5COC(C)OC5C(O)C3O)C3COC(=O)C23)OCO4)cc(OC)c1O (centres undefined) + COC1C(OC(N)=O)C(O)C(Oc2ccc3c(O)c(NC(=O)c4ccc(O)c(CC=C(C)C)c4)c(=O)oc3c2C)OC1(C)C
IC50 (second compound 0.0316 µM): 905 nM
IC50 (second compound 0.1 µM): 911 nM
IC50 (second compound 0.316 µM): 847 nM
IC50 (second compound 1 µM): 980 nM
IC50 (second compound 3.16 µM): 954 nM
IC50 (second compound 10 µM): 1360 nM
viability, T/C [1]: 116%
viability, T/C [2]: 103%
viability, T/C [3]: 78.1%
viability, T/C [4]: 45.9%
viability, T/C [5]: 31.3%
viability, T/C [6]: 21.4%
viability, T/C [7]: 124%
viability, T/C [8]: 108%
viability, T/C [9]: 79.5%
viability, T/C [10]: 50%
viability, T/C [11]: 24.8%
viability, T/C [12]: 29%
viability, T/C [13]: 103%
viability, T/C [14]: 111%
viability, T/C [15]: 80.4%
viability, T/C [16]: 46.5%
viability, T/C [17]: 24.7%
viability, T/C [18]: 23.4%
viability, T/C [19]: 111%
viability, T/C [20]: 93.8%
viability, T/C [21]: 77.3%
viability, T/C [22]: 52.9%
viability, T/C [23]: 25.3%
viability, T/C [24]: 31.6%
viability, T/C [25]: 105%
viability, T/C [26]: 103%
viability, T/C [27]: 81.9%
viability, T/C [28]: 49.7%
viability, T/C [29]: 30%
viability, T/C [30]: 29.2%
viability, T/C [31]: 119%
viability, T/C [32]: 103%
viability, T/C [33]: 97.3%
viability, T/C [34]: 54.1%
viability, T/C [35]: 34.7%
viability, T/C [36]: 27.4%

COc1cccc2c1C(=O)c1c(O)c3c(c(O)c1C2=O)CC(O)(C(=O)CO)CC3OC1CC(N)C(O)C(C)O1 (centres undefined) + COC1C(OC(N)=O)C(O)C(Oc2ccc3c(O)c(NC(=O)c4ccc(O)c(CC=C(C)C)c4)c(=O)oc3c2C)OC1(C)C
IC50 (second compound 0.0316 µM): 154 nM
IC50 (second compound 0.1 µM): 143 nM
IC50 (second compound 0.316 µM): 162 nM
IC50 (second compound 1 µM): 145 nM
IC50 (second compound 3.16 µM): 106 nM
IC50 (second compound 10 µM): 151 nM
viability, T/C [1]: 90.2%
viability, T/C [2]: 59.5%
viability, T/C [3]: 33.8%
viability, T/C [4]: 13.1%
viability, T/C [5]: 0.29%
viability, T/C [6]: 0.43%
viability, T/C [7]: 91.8%
viability, T/C [8]: 57.5%
viability, T/C [9]: 32.5%
viability, T/C [10]: 11.4%
viability, T/C [11]: 0.37%
viability, T/C [12]: 0.4%
viability, T/C [13]: 92.7%
viability, T/C [14]: 61.1%
viability, T/C [15]: 34%
viability, T/C [16]: 16.4%
viability, T/C [17]: 0.2%
viability, T/C [18]: 0.41%
viability, T/C [19]: 94.9%
viability, T/C [20]: 54%
viability, T/C [21]: 40.1%
viability, T/C [22]: 9.16%
viability, T/C [23]: 0.41%
viability, T/C [24]: 0.44%
viability, T/C [25]: 85.3%
viability, T/C [26]: 47.1%
viability, T/C [27]: 35.4%
viability, T/C [28]: 8.24%
viability, T/C [29]: 0.22%
viability, T/C [30]: 0.55%
viability, T/C [31]: 77.9%
viability, T/C [32]: 56.6%
viability, T/C [33]: 36.5%
viability, T/C [34]: 9.76%
viability, T/C [35]: 0.33%
viability, T/C [36]: 0.51%
